Experimental data as given in a melting point compilation (Tetko et al.; mined from patent text by program, amines drawn as free bases though some values may be those of a salt).

Row | melting point | SMILES
1 | 243 to 245 °C | CN1C(C(=O)Nc2ccc(Cl)ccc2=O)=C(O)c2sccc2S1(=O)=O
2 | 232 to 233 °C | COc1cc(C(=O)Nc2cc(F)ccc2C(=O)O)cc(OC)c1OC
3 | 166 to 168 °C | COc1nc(C)c(C)nc1NC(=O)N1CCN(c2ccc(C(C)=O)cc2)CC1
4 | 214 to 215 °C | C=C1CCc2[nH]c3c(c2C1=O)CCC3
5 | 48 to 49 °C | CCCCN(CCCC)C(=O)CC1(c2ccc(OCOC)cc2)NCC(c2ccc3c(c2)OCO3)C1C(=O)O (stereo not given)
6 | 185 to 200 °C | CN(C)c1ccc(N2C(=O)C3Cc4[nH]cnc4CN3C2=S)cc1 (stereo not given)
7 | 90 to 91 °C | O=C1N[C@H](Cc2cccc(OC(F)(F)C(F)F)c2)[C@H](c2ccc(Oc3ccccc3)cc2)O1 (racemic)
8 | 55 to 56 °C | CCCCCCCCCCc1cc(CO)on1
9 | 265 to 267 °C | COc1ccc(-c2cc(C)c(=O)[nH]n2)cc1
10 | 137 to 140 °C | CN(O)C(=O)c1ccccc1Nc1c(Cl)cccc1Cl
11 | 82 to 83 °C | C[Si](C)(C)c1cc(-c2ccc(F)cc2)c(-c2ccc(F)cc2)o1
12 | 75 to 77 °C | CS(=O)(=O)OC1Cc2ccccc2C1
13 | 126 to 128 °C | CCOc1nc(C(F)(F)F)cc(=O)n1-c1cc(OC)c(Br)cc1F
14 | 184 to 185 °C | C=CCn1c(N)cc(=O)n1-c1ccccc1
15 | 254 to 257 °C | CS(=O)(=O)Nn1c(=O)[nH]c2cc(C(F)(F)F)c(C3CCCO3)cc2c1=O (stereo not given)
16 | 149 to 151 °C | CC(C)(C(=O)O)N1COC(C(F)F)=C(c2ccccc2)C1=O
17 | 174 °C | CCCn1nc(-c2c(-c3ccccc3)nn3ccc(OC)cc23)ccc1=O
18 | 238 °C | CS(=O)(=O)c1cccc(NC(=O)c2cnn3c(C(F)F)cc(-c4ccc(C(F)(F)F)c(F)c4)nc23)c1
19 | 218 to 220 °C | O=C(c1ccc(F)cc1)c1ccc(C(=O)c2ccc(F)cc2)cc1
20 | 105 to 107 °C | COC(=O)CC(=O)C=Cc1cc2ccccc2s1
21 | 200 to 202 °C | COC1=NS(=O)(=O)N=C1OC
22 | 135 to 140 °C | CN(CCOC[C@@H]1CC(c2ccc(-c3ccc(N4C[C@H](Cn5ccnn5)OC4=O)cc3F)cn2)=NO1)CC(=O)O
23 | 109 to 111 °C | COc1ccc(-c2cc3cc(OC)cc(C(=O)N(C)OC)c3o2)cc1
24 | 125 to 128 °C | COc1ccc(Br)c2c1C(=O)CC2
25 | 280 to 282 °C | O=C1Nc2cccnc2N(C(=O)CCN2CCNCC2)c2ccccc21

Row | melting point | SMILES
26 | 65 °C | C[Si](C)(C)C#Cc1cc(F)cnc1N
27 | 56 to 59 °C | CNC(=O)NCCSCc1csc(CN(C)C)n1
28 | 37 to 38 °C | O=S(CCC=C(F)F)NCc1ccc(Cl)cc1 (stereo not given)
29 | 182 °C | COc1ccc(CCN(C)CCCCc2ccc(NC(=O)c3cccc4c(=O)c5cccc(OC)c5[nH]c34)cc2)cc1
30 | 177 to 179 °C | O=C(NC1CCN(CCCCc2cc(F)cc3c2-c2ccc(F)cc2C3C(=O)NCC(F)(F)F)CC1)c1ccccc1 (stereo not given)
31 | 173 to 174 °C | CCCOc1ccccc1-c1nc2nc(NCCCSC)ncc2c(=O)[nH]1
32 | 35 °C | CCCCCCCCCCCCCCCOC(=O)c1cccnc1
33 | 95 to 98 °C | Cc1cc(Cc2ccccc2)nc(Nc2ccc(-n3ccnc3CO)cc2)n1
34 | 256 to 257 °C | Cn1cc(-c2cc3cccnc3[nH]2)c2cc(C(=O)NCCO)ccc21
35 | 214 to 215 °C | Cn1cc(C(=O)NCc2ccc(Cl)cc2)c(=O)c2cc(CN3CCC(F)(F)CC3)ccc21
36 | 99 to 100 °C | CCOC(=O)c1cnc(NC(=O)C(Cc2ccc(F)cc2)c2ccc(S(C)(=O)=O)cc2)cn1 (stereo not given)
37 | 172 to 173 °C | NC(Cc1c(Cl)cccc1Cl)=NO
38 | 82 to 84 °C | COc1c(C)c(C)c(OC)c(C(CCCC(=O)O)c2cccnc2)c1C (stereo not given)
39 | 193 to 196 °C | O=C1NC(Cc2ccc(OCc3ccccc3)cn2)C(=O)NC1Cc1cccnc1 (stereo not given)
40 | 138 to 139 °C | CCCc1nc(OC)c(NC(=O)N2CCN(c3cc(C)cc(C)c3)CC2)cc1C
41 | 170 to 172 °C | Nc1cccc(Cn2c(-c3ccc(O)cc3)ccc2-c2ccccc2Cl)n1
42 | 128 to 133 °C | O=C(c1ccccc1)c1ccc2nc(-c3ccc[nH]3)[nH]c2c1
43 | 125 to 135 °C | COc1ccc(-c2cc(=Nc3c(C)cc(C)cc3C)n(C)c(=O)n2C)cc1S(C)=O (stereo not given)
44 | 99 to 101 °C | Cc1ccc(S(=O)(=O)N(CCCl)N(S(C)(=O)=O)S(C)(=O)=O)cc1
45 | 219 to 220 °C | NS(=O)(=O)c1cc(C(=O)O)cc(NCc2ccco2)c1Oc1ccccc1
46 | 150 to 153 °C | COCCNC(=O)c1ccc(C(=O)C=C(c2cc(Cl)cc(Cl)c2)C(F)(F)F)cc1
47 | 56 to 57 °C | N#CC(C#N)=C1N(CCCN2CCCCC2)CCN1C1CCN(CCF)CC1
48 | 177 to 178 °C | C=C1C(=C)C2OC1C1=C2Cc2c(OC)ccc(OC)c2C1
49 | 162 to 164 °C | N#CC=C1CCN(c2ccc(N3C[C@H](CNC(=O)C(F)F)OC3=O)cc2F)CC1
50 | 128 to 129 °C | CCCSc1nc(-c2ccc(Cl)cc2)c(CCC(=O)O)o1

Row | melting point | SMILES
51 | 115 to 117 °C | CCOC(=O)[C@H](Cc1ccc(-c2c(OC)cc(CCO)cc2OC)cc1)NC(=O)c1c(F)cccc1F
52 | 195 to 196 °C | O=C(Nc1ccc(Cl)c(Cl)c1)NS(=O)(=O)c1ccc(Cl)cc1
53 | 44 to 45 °C | CN(C)C1CC=C(c2ccccc2Cc2ccccc2)CC1 (stereo not given)
54 | 192 to 195 °C | COC(=O)c1cccc2c1N(CCN(C(C)C)C(C)C)C(=O)/C2=N\NC(N)=O
55 | 112 to 115 °C | COc1cccc(-c2cc(Cl)ncn2)c1
56 | 100 to 102 °C | CC(C)(C)OC(=O)CN1CCN(CC(=O)OC(C)(C)C)C1=O
57 | 194 to 196 °C | COc1cc2c(Nc3ccc(Cl)cc3F)ncnc2cc1OCCN(C)C(=O)OC(C)(C)C
58 | 183 to 185 °C | COc1cc2c(c(Cl)c1Cl)C1=CC(=O)CCC1(CCCCl)C2 (stereo not given)
59 | 182 °C | CCS(=O)c1cccc(-c2nc(=O)c3ccccc3s2)n1 (stereo not given)
60 | 159 to 160 °C | NC(=O)c1c(Cl)cn2c1CN(S(=O)(=O)c1ccc(C(F)(F)F)cc1)CC2
61 | 136 to 137 °C | CN1C(=O)Cc2cc(C(=O)CN3CCN(c4ccccc4)CC3)cnc21
62 | 124 to 125 °C | COc1cc(C(O)c2cnc3ccccc3c2)ccc1OCc1ccccc1 (stereo not given)
63 | 120 °C | COC(=O)c1ccc(OC)c(NC(=N)c2ccc(F)cc2Cl)c1
64 | 90 to 93 °C | CCOC(=O)CCc1ccc2c(c1)CC(CNS(=O)(=O)c1ccc(Cl)cc1)C2 (stereo not given)
65 | 177 to 180 °C | CC1(C)Sc2nccn2C1=NOC(=O)CNSCNC(=O)ON=C1n2ccnc2SC1(C)C
66 | 112 to 113 °C | CCCCS(=O)Cc1ccc(CCl)cc1 (stereo not given)
67 | 107 to 109 °C | CC(=O)N1C(=O)NC(=O)CC1C (stereo not given)
68 | 109 to 110 °C | COc1ccc(S(N)(=O)=O)cc1C(O)C(C)N=[N+]=[N-] (stereo not given)
69 | 198 to 200 °C | COc1ccc(C2=Nc3cccnc3Nc3ccccc32)cc1
70 | 153 to 154 °C | C=CCNc1c([N+](=O)[O-])cc(C(=O)OC)c(Nc2ccc(I)cc2F)c1F
71 | 119 °C | COc1cc2c(cc1-c1ccccc1)c1cc(-c3ccccc3)c(OC)cc1n2CCC(C)CCCC(C)C (stereo not given)
72 | 236 to 238 °C | Clc1ccc(Nc2nc3ccccc3c3[nH]c(C4CCCCCC4)nc23)cc1Cl
73 | 208 to 210 °C | COc1ccc(C)cc1NC(=O)Nc1ccc(N2CCN(C(=O)Nc3ccc(N(C)CCO)cc3C)CC2)cc1
74 | 104 to 107 °C | CSCC(C)Nc1nccc(-c2ccnc(Nc3cccc(F)c3)c2)n1 (stereo not given)
75 | 99 to 100 °C | CCOC(=O)CNC(=O)Oc1c(CC)n(C)ccc1=O

Row | melting point | SMILES
76 | 180 °C | OC1CSC(Oc2ccc(-n3ccnc3)cc2)C(O)C1O (stereo not given)
77 | 163 to 166 °C | O=C(O)CN(Cn1nnc2ccccc21)Cn1nnc2ccccc21
78 | 262 to 264 °C | Cc1cccc2ncn(C3CCC(=O)NC3=O)c(=O)c12 (stereo not given)
79 | 115 °C | COc1ccc(Cl)cc1C(=O)NCCc1ccc(-c2ccc(OC(C)(C)CO)cc2)cc1
80 | 230 °C | CCOC(=O)CSc1ccc(-c2nc3cnccc3[nH]2)cc1
81 | 226 to 229 °C | CCCc1nn(C)c2c(=O)[nH]c(Cc3ccc(S(=O)(=O)N[C@@H](CO)C(N)=O)cc3)nc12
82 | 74 to 76 °C | CN(C)c1nc(N(C)C)c2ccccc2n1
83 | 66 to 68 °C | COC1=C(OC)C(=O)C(Cl)=C(C)C1=O
84 | 96.8 °C | Cn1cncc1C(c1ccc(Cl)cc1)c1ccc2c(c1)c(-c1ccccc1)cc(=O)n2C (stereo not given)
85 | 102 °C | CC(C)(C)[Si](C)(C)O[C@H]1CC(=O)O[C@H](CO)C1
86 | 72 to 75 °C | COc1ccc(S(=O)(=O)N(Cc2ccccc2)C(Cc2nnn(C)n2)C(=O)NO)cc1 (stereo not given)
87 | 120 to 121 °C | COC(=O)C(O)C(NC(=O)OCc1ccccc1)c1ccccc1 (stereo not given)
88 | 130 to 132 °C | CCOC(=O)C1=C(C)NC(=S)N(C(=O)OCC)C1c1ccccc1[N+](=O)[O-] (stereo not given)
89 | 206 to 209 °C | O=c1c2c(Cc3cccc(C(F)(F)F)c3)n[nH]c2c2cccnc2n1-c1cccc(OC(F)(F)F)c1
90 | 72 to 73 °C | COC(=O)c1cc(Cl)c(OC)c(Cl)c1N
91 | 87 to 88 °C | COc1ccc(CCNC(C)=O)cc1OC1CCCC1
92 | 183 to 184 °C | NC(=S)Nc1ccccc1-c1ccccc1
93 | 110 to 115 °C | COc1cc(C(=O)N2CCC(CCN3CCC(C(=O)c4nc5ccccc5n4Cc4ccccn4)CC3)(c3ccc(Cl)c(Cl)c3)C2)cc(OC)c1OC (stereo not given)
94 | 112 to 114 °C | COc1cccc(CNc2ncnc3c2sc2nc(N4CCSCC4)c4c(c23)CC(C)(C)CC4)c1OC
95 | 154 to 155 °C | CC1(C)SC(c2cc(Br)c(O)c(Br)c2)NC1C(=O)O (stereo not given)
96 | 180 to 182 °C | CC(C)(C)C(=O)COc1nn(CC(=O)C(C)(C)C)c(-c2ccc(S(C)(=O)=O)cc2)c1-c1ccc(F)cc1
97 | 89 to 91 °C | OCCNC(=S)NC1CCc2ccccc2C1 (stereo not given)

Row | SMILES | melting point
98 | CC12CCC(O)CC1CCC1C2CCC2(C)C(C(=O)CSc3ccncc3)CCC12 (stereo not given) | 154 to 156 °C
99 | O=C(Cc1ccc(Cl)c(Cl)c1)N1CCCC2CCCC(N3CCCC3)C21 (stereo not given) | 82 to 84 °C
100 | COC(=O)C1C(=O)NC(=O)C12C(=O)N1c3ccccc3Sc3cccc2c31 (stereo not given) | 221 to 224 °C
